The source of these data is ChEMBL document CHEMBL1159134, “Heterocyclic guanidines as calcium antagonists” (Bioorg Med Chem Lett, 1994).

Values joined by “and” are separate entries in the source; they are usually repeats but may differ in a detail not shown here. Equal values may be shown once.

The target in test [1] is T1, Voltage-dependent L-type calcium channel subunit alpha-1C (Rattus norvegicus, UniProt P22002). The test can be described thus: Binding of [3H]nitrendipine to calcium channel in rat heart membranes was determined. Format: cell membranes, Membrane.
T1 sequence (P22002 whole entry): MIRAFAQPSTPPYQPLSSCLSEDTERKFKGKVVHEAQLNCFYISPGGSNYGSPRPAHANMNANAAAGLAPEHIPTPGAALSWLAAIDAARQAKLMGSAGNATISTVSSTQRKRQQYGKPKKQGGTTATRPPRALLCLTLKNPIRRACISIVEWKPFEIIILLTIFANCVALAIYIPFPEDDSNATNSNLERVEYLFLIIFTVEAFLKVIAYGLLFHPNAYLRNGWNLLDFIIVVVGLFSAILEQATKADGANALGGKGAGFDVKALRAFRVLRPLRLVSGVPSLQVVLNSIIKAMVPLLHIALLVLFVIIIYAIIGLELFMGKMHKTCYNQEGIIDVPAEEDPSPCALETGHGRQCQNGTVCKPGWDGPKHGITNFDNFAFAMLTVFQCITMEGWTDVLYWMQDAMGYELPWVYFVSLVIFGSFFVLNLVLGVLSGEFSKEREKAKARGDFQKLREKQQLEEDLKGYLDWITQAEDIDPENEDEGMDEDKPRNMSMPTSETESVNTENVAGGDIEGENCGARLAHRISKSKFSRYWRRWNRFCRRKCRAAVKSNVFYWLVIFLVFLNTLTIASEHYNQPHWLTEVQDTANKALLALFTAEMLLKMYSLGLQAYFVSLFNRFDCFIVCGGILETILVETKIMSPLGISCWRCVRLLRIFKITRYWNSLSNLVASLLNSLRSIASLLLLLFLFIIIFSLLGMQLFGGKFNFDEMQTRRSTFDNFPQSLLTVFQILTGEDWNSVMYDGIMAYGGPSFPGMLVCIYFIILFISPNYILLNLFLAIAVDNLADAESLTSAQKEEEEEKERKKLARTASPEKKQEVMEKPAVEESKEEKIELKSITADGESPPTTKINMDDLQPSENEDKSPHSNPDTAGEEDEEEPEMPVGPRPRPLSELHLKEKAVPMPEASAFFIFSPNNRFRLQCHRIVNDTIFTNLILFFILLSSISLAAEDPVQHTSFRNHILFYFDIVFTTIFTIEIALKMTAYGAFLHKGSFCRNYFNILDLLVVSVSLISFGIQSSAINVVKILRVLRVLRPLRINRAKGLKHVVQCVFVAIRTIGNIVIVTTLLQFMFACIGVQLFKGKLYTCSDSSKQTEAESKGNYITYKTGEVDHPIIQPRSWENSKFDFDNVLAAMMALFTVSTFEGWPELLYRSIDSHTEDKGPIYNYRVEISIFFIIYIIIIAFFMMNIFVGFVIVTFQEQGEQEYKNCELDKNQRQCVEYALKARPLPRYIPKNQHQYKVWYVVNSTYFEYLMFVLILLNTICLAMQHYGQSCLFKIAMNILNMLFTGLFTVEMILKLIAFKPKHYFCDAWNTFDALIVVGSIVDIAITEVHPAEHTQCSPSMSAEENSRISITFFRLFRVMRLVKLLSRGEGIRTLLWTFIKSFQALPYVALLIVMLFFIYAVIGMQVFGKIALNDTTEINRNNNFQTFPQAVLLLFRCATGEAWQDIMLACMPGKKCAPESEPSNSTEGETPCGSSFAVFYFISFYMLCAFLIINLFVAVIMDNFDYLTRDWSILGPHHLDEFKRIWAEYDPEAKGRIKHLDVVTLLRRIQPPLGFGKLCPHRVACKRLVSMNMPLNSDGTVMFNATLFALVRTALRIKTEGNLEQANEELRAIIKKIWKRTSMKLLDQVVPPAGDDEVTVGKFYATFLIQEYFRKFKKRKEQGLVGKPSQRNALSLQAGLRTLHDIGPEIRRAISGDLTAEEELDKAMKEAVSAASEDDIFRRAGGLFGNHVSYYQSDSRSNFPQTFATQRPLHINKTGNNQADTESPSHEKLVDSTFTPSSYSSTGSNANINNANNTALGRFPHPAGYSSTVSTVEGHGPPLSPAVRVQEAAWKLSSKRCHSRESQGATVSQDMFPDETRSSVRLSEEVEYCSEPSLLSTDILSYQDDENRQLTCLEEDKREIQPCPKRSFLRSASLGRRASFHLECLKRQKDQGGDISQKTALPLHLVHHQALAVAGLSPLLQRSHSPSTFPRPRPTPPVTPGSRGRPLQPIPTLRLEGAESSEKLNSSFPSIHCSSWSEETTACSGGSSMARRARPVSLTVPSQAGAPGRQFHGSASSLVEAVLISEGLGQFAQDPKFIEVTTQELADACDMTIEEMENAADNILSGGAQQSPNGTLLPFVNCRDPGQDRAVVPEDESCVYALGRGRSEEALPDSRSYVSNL
The nature of test [2]: Calcium channel-blocking effect was assessed in potassium ion depolarized guinea pig ileum strips by recording the contractile responses produced by varying concentrations of calcium chloride. Format: functional, tissue-based. As to conditions: Cavia porcellus, read-out: pA2 (converted).
Test [3] has as its target T1, Voltage-dependent L-type calcium channel subunit alpha-1C. The test can be described thus: Binding of [3H]nitrendipine to calcium channel in rat heart membranes. Type of test: cell membranes, Membrane.
Test [4] concerns the target Voltage-gated L-type calcium channel (Rattus norvegicus, UniProt P22002+Q02485+P27732). The test can be described thus: Binding of [3H]nitrendipine to calcium channel in rat cerebral cortex. Type of test: tissue-based.

Regarding `c1ccc(C(CNC2=N[C@H]3CCCC[C@@H]3N2)c2ccccc2)cc1`, the IC50 in test [1] is over 1000 nM. In addition, the Kb in test [2] is 141 nM.

With `c1ccc(C(CCN/C2=N/CCCCCN2)c2ccccc2)cc1`, in test [1], the IC50 is over 1000 nM. The Kb in test [2] was 37.2 nM.

As to `CN1CCCN=C1NCC(c1ccccc1)c1ccccc1`, in test [1], the IC50 is over 1000 nM. Besides, the Kb in test [2] was 1100 nM.

For `c1ccc(C(CCNC2=NCCCN2)c2ccccc2)cc1`, the half-inhibitory concentration (IC50) in test [1] is over 1000 nM. In addition, in test [2], the Kb is 34.7 nM.

Consider `c1ccc(C(CNC2=NCCCN2)c2ccccc2)cc1`, for which the concentration for half-maximal inhibition (IC50) in test [1] was over 1000 nM. In addition, the Kb in test [2] is 776 nM.

Turning to `CN1CCN=C1NCCC(c1ccccc1)c1ccccc1`, the IC50 in test [1] was over 1000 nM. Besides, the Kb in test [2] was 257 nM.

In the case of `c1ccc(C(CNC2=NCCCCN2)c2ccccc2)cc1`, the concentration for half-maximal inhibition (IC50) in test [1] is over 1000 nM. In test [2], the Kb is 550 nM.

Turning to `c1ccc([C@@H]2CCC[C@@H]2N/C2=N/CCCCCCCCCCC2)cc1`, the EC50 in test [3] was 61 nM and 34 nM.

With `c1ccc(C(CCNC2=NCCCCN2)c2ccccc2)cc1`, in test [1], the IC50 was over 1000 nM. Also, in test [2], the Kb is 240 nM.

`c1ccc(C(CCNC2=N[C@H]3CCCC[C@@H]3N2)c2ccccc2)cc1`: the IC50 in test [1] was over 1000 nM. Also, in test [2], the Kb is 132 nM.

`c1ccc(C(CCNC2=NCc3ccccc3CN2)c2ccccc2)cc1`: in test [1], the 50% inhibitory concentration (IC50) is over 1000 nM. Also, in test [2], the Kb is 50.1 nM.

Regarding `c1ccc(C(CNC2=NCCN2)c2ccccc2)cc1`, in test [1], the IC50 is over 1000 nM. Besides, in test [2], the Kb was 676 nM.

Regarding `c1ccc(C(NC2=NCCN2)c2ccccc2)cc1`, the 50% inhibitory concentration (IC50) in test [1] was over 1000 nM. In addition, the Kb in test [2] was 2510 nM.

With `CN1CCN=C1NCC(c1ccccc1)c1ccccc1`, in test [1], the IC50 was over 1000 nM. In test [2], the Kb is 1860 nM.

`CN1CCN=C1NCCCC(c1ccccc1)c1ccccc1`: the IC50 in test [1] was over 1000 nM. In addition, the Kb in test [2] is 170 nM.

Regarding `c1ccc(C(CCNC2=NCCN2)c2ccccc2)cc1`, the concentration for half-maximal inhibition (IC50) in test [1] is over 1000 nM. For the same molecule, the Kb in test [2] is 57.5 nM.

With `c1ccc(C(CNC2=NCc3ccccc3CN2)c2ccccc2)cc1`, in test [1], the IC50 was over 1000 nM. Further, in test [2], the Kb was 81.3 nM.

For `c1ccc(C(CNC2=NCCCCCN2)c2ccccc2)cc1`, in test [1], the half-maximal inhibitory concentration (IC50) was over 1000 nM. Moreover, the Kb in test [2] is 251 nM.

As for `CCCC(CN/C1=N/CCCCCCCCCCC1)(c1ccccc1)c1ccccc1`, the figures for the concentration for a half-maximal effect (EC50) in test [4] and in test [3] were 61 nM and 34 nM, respectively. Also, in test [1], the half-maximal inhibitory concentration (IC50) is over 1000 nM. Moreover, the Kb in test [2] is 53.7 nM.

On to `CN1CCCN=C1NCCC(c1ccccc1)c1ccccc1`, for which, in test [1], the IC50 is over 1000 nM. The Kb in test [2] was 240 nM.

In the case of `COc1ccc([C@@H]2Sc3ccccc3N(CCN(C)C)C(=O)[C@@H]2OC(C)=O)cc1` [DILTIAZEM], the Kb in test [2] was 41.7 nM.
